Reference: patent publication US8835456B1, “NS5A inhibitors useful for treating HCV” (Achillion Pharmaceuticals, Inc., priority 2011, dated 2014)

Each compound was assayed on Hepatitis C replicon (assay: HCV replicon replication assay (NPT level by captured ELISA)). Settings: Hepatitis C virus, Huh-7, 72 h.
Format: cell-based
Experimental: Compounds claimed herein are tested for the ability to inhibit viral replication of the Hepatitis C replicon in cultured cells in which the HCV replicon construct has been incorporated. The HCV replicon system was described by Bartenschlager, et. al (Science, 285, pp. 110-113 (1999)). The replicon system is predictive of in vivo anti-HCV activity; compounds that are active in humans uniformly evidence activity in the replicon assay.
In this assay HCV replicon containing cells are treated with different concentrations of the test compound to ascertain the ability of the test compound to suppress replication of the HCV replicon. As a positive control, HCV replicon-containing cells are treated with different concentrations of interferon alpha, a known inhibitor of HCV replication. The replicon assay system includes Neomycin Phosphotransferase (NPT) as a component of the replicon itself in order to detect the transcription of replicon gene products in the host cell. Cells in which the HCV replicon is actively replicating have high levels of NPT; the level of NPT is proportional to HCV replication. […] The NPT level of each sample is measured using a captured ELISA.
A protocol for testing compounds for the ability to inhibit viral replication of the Hepatitis C replicon cultured cells in which the replicon construct has been incorporated, follows.
The HCV genome consists of a single ORF that encodes a 3000 amino acid polyprotein. The ORF is flanked on the 5′ side by an untranslated region that serves as an internal ribosome entry site (IRES) and at the 3′ side by a highly conserved sequence necessary for viral replication (3′-NTR). The structural proteins, necessary for viral infection, are located near the 5′ end of the ORF. The non-structural proteins, designated NS2 to NS5B comprise the remainder of the ORF. […]
HCV replicon-containing cells are examined under a microscope to ensure that cells growing well. […] The cells are counted. […]

Row | Structure (SMILES) | EC50
1 | COC(=O)N[C@H](C(=O)N1C2CCC(C2)[C@H]1c1nc(-c2ccc(-c3ccc(-c4c[nH]c([C@@H]5CC6CCCCC6N5C(=O)[C@@H](NC(=O)OC)C(C)C)n4)cc3)nc2)c[nH]1)C(C)C (stereo partly drawn) [Compound 14] | < 10 nM
2 | COC(=O)N[C@H](C(=O)N1C2CCC(C2)[C@H]1c1nc(-c2ccc(-c3ccc(-c4c[nH]c([C@@H]5CC6CCCCC6N5C(=O)[C@@H](NC(=O)OC)C(C)C)n4)cc3)s2)c[nH]1)C(C)C (stereo partly drawn) [Compound 15] | < 10 nM
3 | COC(=O)N[C@H](C(=O)N1C2CCC(C2)[C@H]1c1nc(-c2ccc(-c3ccc(-c4c[nH]c([C@@H]5CC6CCCCC6N5C(=O)[C@@H](NC(=O)OC)C(C)C)n4)cc3)cc2)c[nH]1)C(C)C (stereo partly drawn) [Compound 10] | < 10 nM
